Question: What does the source list for `CC(=O)Oc1ccccc1C(=O)O`?
Answer: solubility (mole fraction) (in MIBK, 277.46 K): 0.0196; solubility (mole fraction) (in MIBK, 281.76 K): 0.023; solubility (mole fraction) (in MIBK, 287.96 K): 0.0283; solubility (mole fraction) (in MIBK, 292.96 K): 0.0331; solubility (mole fraction) (in MIBK, 300.18 K): 0.0414; solubility (mole fraction) (in MIBK, 307.27 K): 0.0511; solubility (mole fraction) (in MIBK, 312.47 K): 0.0594; solubility (mole fraction) (in MIBK, 318.36 K): 0.07; solubility (mole fraction) (in MIBK, 327.95 K): 0.0897; solubility (mole fraction) (in ethyl acetate, 275.86 K): 0.0154; solubility (mole fraction) (in ethyl acetate, 283.66 K): 0.0204; solubility (mole fraction) (in ethyl acetate, 289.86 K): 0.0254; solubility (mole fraction) (in ethyl acetate, 296.16 K): 0.0313; solubility (mole fraction) (in ethyl acetate, 302.67 K): 0.0384; solubility (mole fraction) (in ethyl acetate, 308.68 K): 0.0467; solubility (mole fraction) (in ethyl acetate, 315.16 K): 0.0564; solubility (mole fraction) (in ethyl acetate, 321.37 K): 0.0676; solubility (mole fraction) (in ethyl acetate, 327.91 K): 0.0807; solubility (mole fraction) (in isobutanol, 276.36 K): 0.0098; solubility (mole fraction) (in isobutanol, 284.46 K): 0.0151; solubility (mole fraction) (in isobutanol, 289.27 K): 0.0194; solubility (mole fraction) (in isobutanol, 294.3 K): 0.0247; solubility (mole fraction) (in isobutanol, 299.16 K): 0.0309; solubility (mole fraction) (in isobutanol, 303.65 K): 0.0383; solubility (mole fraction) (in isobutanol, 308.26 K): 0.0469; solubility (mole fraction) (in isobutanol, 312.61 K): 0.0567; solubility (mole fraction) (in isobutanol, 316.87 K): 0.0679; solubility (mole fraction) (in isobutanol, 320.96 K): 0.0807; solubility (mole fraction) (in isobutanol, 322.96 K): 0.0875; solubility (mole fraction) (in isobutanol, 326.57 K): 0.1; solubility (mole fraction) (in isobutyl acetate, 277.86 K): 0.0109; solubility (mole fraction) (in isobutyl acetate, 281.16 K): 0.0124; solubility (mole fraction) (in isobutyl acetate, 287.78 K): 0.0157; solubility (mole fraction) (in isobutyl acetate, 293.97 K): 0.0198; solubility (mole fraction) (in isobutyl acetate, 300.25 K): 0.0247; solubility (mole fraction) (in isobutyl acetate, 307.15 K): 0.0306; solubility (mole fraction) (in isobutyl acetate, 313.56 K): 0.0376; solubility (mole fraction) (in isobutyl acetate, 320.16 K): 0.046; solubility (mole fraction) (in isobutyl acetate, 327.15 K): 0.0559; solubility (mole fraction) (in n-butanol, 277.66 K): 0.0145; solubility (mole fraction) (in n-butanol, 282.35 K): 0.0183; solubility (mole fraction) (in n-butanol, 287.35 K): 0.0232; solubility (mole fraction) (in n-butanol, 292.35 K): 0.0291; solubility (mole fraction) (in n-butanol, 297.37 K): 0.036; solubility (mole fraction) (in n-butanol, 301.66 K): 0.044; solubility (mole fraction) (in n-butanol, 306.16 K): 0.0531; solubility (mole fraction) (in n-butanol, 310.35 K): 0.0635; solubility (mole fraction) (in n-butanol, 314.64 K): 0.0752; solubility (mole fraction) (in n-butanol, 318.75 K): 0.0883; solubility (mole fraction) (in n-butanol, 323.44 K): 0.103; solubility (mole fraction) (in n-propanol, 276.36 K): 0.0164; solubility (mole fraction) (in n-propanol, 282.96 K): 0.0227; solubility (mole fraction) (in n-propanol, 288.16 K): 0.0286; solubility (mole fraction) (in n-propanol, 293.16 K): 0.0354; solubility (mole fraction) (in n-propanol, 297.85 K): 0.0434; solubility (mole fraction) (in n-propanol, 302.55 K): 0.0527; solubility (mole fraction) (in n-propanol, 307.06 K): 0.0632; solubility (mole fraction) (in n-propanol, 311.66 K): 0.0752; solubility (mole fraction) (in n-propanol, 316.06 K): 0.0887; solubility (mole fraction) (in n-propanol, 320.45 K): 0.104; solubility (mole fraction) (in n-propanol, 324.75 K): 0.121

Question: With `O=C(O)c1ccccc1` as the compound, how does the solubility (mole fraction) (in 2-butanone, 278.65 K) read?
Answer: 0.131

Question: And the solubility (mole fraction) (in 2-butanone, 284.29 K)?
Answer: 0.148

Question: And the solubility (mole fraction) (in 2-butanone, 289.86 K)?
Answer: 0.166

Question: What about the solubility (mole fraction) (in 2-butanone, 295.54 K) of the same compound?
Answer: 0.186

Question: What about the solubility (mole fraction) (in 2-butanone, 301.27 K) of the same compound?
Answer: 0.206

Question: What about the solubility (mole fraction) (in 2-butanone, 307.1 K) of the same compound?
Answer: 0.229

Question: What about the solubility (mole fraction) (in 2-butanone, 313.04 K) of the same compound?
Answer: 0.254

Question: And the solubility (mole fraction) (in 2-butanone, 319.06 K)?
Answer: 0.281

Question: And the solubility (mole fraction) (in 2-butanone, 325.2 K)?
Answer: 0.311

Question: And the solubility (mole fraction) (in MIBK, 276.45 K)?
Answer: 0.11

Question: And the solubility (mole fraction) (in MIBK, 281.66 K)?
Answer: 0.124

Question: What about the solubility (mole fraction) (in MIBK, 287.16 K) of the same compound?
Answer: 0.139

Question: And the solubility (mole fraction) (in MIBK, 292.73 K)?
Answer: 0.156

Question: And the solubility (mole fraction) (in MIBK, 298.25 K)?
Answer: 0.175

Question: And the solubility (mole fraction) (in MIBK, 303.76 K)?
Answer: 0.195

Question: And the solubility (mole fraction) (in MIBK, 309.36 K)?
Answer: 0.217

Question: What about the solubility (mole fraction) (in MIBK, 315.05 K) of the same compound?
Answer: 0.242

Question: And the solubility (mole fraction) (in MIBK, 320.74 K)?
Answer: 0.264

Question: What about the solubility (mole fraction) (in MIBK, 325.16 K) of the same compound?
Answer: 0.281

Question: And the solubility (mole fraction) (in ethyl acetate, 279.67 K)?
Answer: 0.105

Question: And the solubility (mole fraction) (in ethyl acetate, 285.24 K)?
Answer: 0.121

Question: What about the solubility (mole fraction) (in ethyl acetate, 289.24 K) of the same compound?
Answer: 0.133

Question: What about the solubility (mole fraction) (in ethyl acetate, 293.36 K) of the same compound?
Answer: 0.146

Question: And the solubility (mole fraction) (in ethyl acetate, 298.93 K)?
Answer: 0.167

Question: What about the solubility (mole fraction) (in ethyl acetate, 303.76 K) of the same compound?
Answer: 0.186

Question: What about the solubility (mole fraction) (in ethyl acetate, 308.76 K) of the same compound?
Answer: 0.206

Question: What about the solubility (mole fraction) (in ethyl acetate, 313.66 K) of the same compound?
Answer: 0.228

Question: And the solubility (mole fraction) (in ethyl acetate, 318.65 K)?
Answer: 0.252

Question: What about the solubility (mole fraction) (in ethyl acetate, 323.56 K) of the same compound?
Answer: 0.278

Question: And the solubility (mole fraction) (in ethyl acetate, 326.5 K)?
Answer: 0.306

Question: And the solubility (mole fraction) (in isopropyl acetate, 276.27 K)?
Answer: 0.0855

Question: What about the solubility (mole fraction) (in isopropyl acetate, 283.74 K) of the same compound?
Answer: 0.105

Question: What about the solubility (mole fraction) (in isopropyl acetate, 288.69 K) of the same compound?
Answer: 0.118

Question: What about the solubility (mole fraction) (in isopropyl acetate, 293.67 K) of the same compound?
Answer: 0.134

Question: What about the solubility (mole fraction) (in isopropyl acetate, 298.34 K) of the same compound?
Answer: 0.15

Question: What about the solubility (mole fraction) (in isopropyl acetate, 303.36 K) of the same compound?
Answer: 0.168

Question: What about the solubility (mole fraction) (in isopropyl acetate, 308.33 K) of the same compound?
Answer: 0.188

Question: What about the solubility (mole fraction) (in isopropyl acetate, 313.25 K) of the same compound?
Answer: 0.209

Question: And the solubility (mole fraction) (in isopropyl acetate, 318.25 K)?
Answer: 0.232

Question: And the solubility (mole fraction) (in isopropyl acetate, 324.02 K)?
Answer: 0.26

Question: What about the solubility (mole fraction) (in methanol, 278 K) of the same compound?
Answer: 0.111

Question: What about the solubility (mole fraction) (in methanol, 285.5 K) of the same compound?
Answer: 0.129

Question: And the solubility (mole fraction) (in methanol, 292.23 K)?
Answer: 0.145

Question: What about the solubility (mole fraction) (in methanol, 298.99 K) of the same compound?
Answer: 0.164

Question: And the solubility (mole fraction) (in methanol, 304.78 K)?
Answer: 0.18

Question: What about the solubility (mole fraction) (in methanol, 312.56 K) of the same compound?
Answer: 0.204

Question: And the solubility (mole fraction) (in methanol, 319.32 K)?
Answer: 0.227

Question: What about the solubility (mole fraction) (in methanol, 323.49 K) of the same compound?
Answer: 0.241

Question: What about the solubility (mole fraction) (in n-butanol, 276.92 K) of the same compound?
Answer: 0.116

Question: And the solubility (mole fraction) (in n-butanol, 281.92 K)?
Answer: 0.13

Question: And the solubility (mole fraction) (in n-butanol, 291.77 K)?
Answer: 0.16

Question: What about the solubility (mole fraction) (in n-butanol, 296.56 K) of the same compound?
Answer: 0.176

Question: And the solubility (mole fraction) (in n-butanol, 301.56 K)?
Answer: 0.194

Question: And the solubility (mole fraction) (in n-butanol, 311.66 K)?
Answer: 0.234

Question: What about the solubility (mole fraction) (in n-butanol, 316.79 K) of the same compound?
Answer: 0.256

Question: What about the solubility (mole fraction) (in n-butanol, 321.9 K) of the same compound?
Answer: 0.279

Question: And the solubility (mole fraction) (in n-butanol, 327.3 K)?
Answer: 0.306

Question: And the solubility (mole fraction) (in n-propanol, 279.06 K)?
Answer: 0.119

Question: What about the solubility (mole fraction) (in n-propanol, 284.15 K) of the same compound?
Answer: 0.133

Question: What about the solubility (mole fraction) (in n-propanol, 289.26 K) of the same compound?
Answer: 0.148

Question: And the solubility (mole fraction) (in n-propanol, 294.47 K)?
Answer: 0.164

Question: What about the solubility (mole fraction) (in n-propanol, 299.65 K) of the same compound?
Answer: 0.182

Question: And the solubility (mole fraction) (in n-propanol, 304.75 K)?
Answer: 0.2

Question: What about the solubility (mole fraction) (in n-propanol, 310.06 K) of the same compound?
Answer: 0.221

Question: What about the solubility (mole fraction) (in n-propanol, 315.41 K) of the same compound?
Answer: 0.242

Question: And the solubility (mole fraction) (in n-propanol, 320.77 K)?
Answer: 0.266

Question: And the solubility (mole fraction) (in n-propanol, 326.16 K)?
Answer: 0.291

— BigSolDB 2.1
